Calls of active or inactive are those of the source. The rule behind the calls is not given here.
Legend:
[1] = tested on: K562; assay: Cytotoxicity against human K562 cells at 100 uM by MTT assay; format: functional, cell-based
[2] = tested on: A549; assay: Cytotoxicity against human A549 cells at 100 uM by SRB assay; format: functional, cell-based
[3] = tested on: Escherichia coli; assay: Antimicrobial activity against Escherichia coli at 100 uM by microdilution method; format: functional, organism-based
[4] = tested on: Staphylococcus aureus; assay: Antimicrobial activity against Staphylococcus aureus at 100 uM by microdilution method; format: functional, organism-based
[5] = tested on: Candida albicans; assay: Antimicrobial activity against Candida albicans at 100 uM by microdilution method; format: functional, organism-based
[6] = tested on: A549; assay: Cytotoxicity against human A549 cells by SRB assay; format: functional, cell-based
[7] = tested on: K562; assay: Cytotoxicity against human K562 cells by MTT assay; format: functional, cell-based
[8] = tested on: Escherichia coli; assay: Antimicrobial activity against Escherichia coli by microdilution method; format: functional, organism-based
[9] = tested on: Staphylococcus aureus; assay: Antimicrobial activity against Staphylococcus aureus by microdilution method; format: functional, organism-based
[10] = tested on: Candida albicans; assay: Antimicrobial activity against Candida albicans by microdilution method; format: functional, organism-based

Compound: C/C1=C\CC[C@]2(C)[C@@H]3C(=O)C(=O)[C@@H](C=C3/C=C/C[C@@]3(C)CC[C@H]4C3=C[C@H](C(C)(C)O)CC[C@H]4C)[C@H]2[C@H]2[C@H](CC1)C2(C)C
- Activity [1]: inactive
- Activity [2]: inactive
- Activity [3]: inactive
- Activity [4]: inactive
- Activity [5]: inactive

Compound: COc1cccc2c1C(=O)c1c(O)c3c(c(O)c1C2=O)C[C@@](O)(C(=O)CO)C[C@@H]3O[C@H]1C[C@H](N)[C@H](O)[C@H](C)O1 [DOXORUBICIN]
- IC50 [6]: 49 nM
- IC50 [7]: 280 nM

Compound: GENTAMICIN
- MIC [8]: 1.2 µg/mL
- MIC [9]: 0.05 µg/mL

Compound: NYSTATIN
- MIC [10]: 1 µg/mL
